Results from patent US8802678B2, “Carbonylated (aza) cyclohexanes as dopamine D3 receptor ligands” (Bioprojet, priority 2006, dated 2014).
Counter-ions that a name gives are not always drawn.

What was measured:
human D3 receptor = human D3 receptor (Homo sapiens, UniProt P35462); test: [3H]spiperone binding, membranes of CHO cells transfected with human D3 receptor cDNA; conditions: affinity for the human D3 receptor; [3H]spiperone 0.5-2 nM, CHO-hD3 membranes, 60 minutes at room temperature
Description: Affinity of compounds for the human D3 receptor can be determined by [^3H] spiperone binding CHO cells have been transfected by the cDNA coding for the human D3 receptor (hD3). [^3H]Spiperone (0.5 à 2 nM) binding is performed in the presence of 2.5 to 5 μg of membrane proteins in a medium containing 120 mM NaCl, 5 mM KCl, and 50 mM Tris HCl pH 7.4; incubation for 60 minutes at room temperature is performed. Non specific binding is estimated in the presence of 10 μM haloperidol. Non transfected cells are devoid of any specific binding.

human D3 receptor, sequence (P35462 whole entry): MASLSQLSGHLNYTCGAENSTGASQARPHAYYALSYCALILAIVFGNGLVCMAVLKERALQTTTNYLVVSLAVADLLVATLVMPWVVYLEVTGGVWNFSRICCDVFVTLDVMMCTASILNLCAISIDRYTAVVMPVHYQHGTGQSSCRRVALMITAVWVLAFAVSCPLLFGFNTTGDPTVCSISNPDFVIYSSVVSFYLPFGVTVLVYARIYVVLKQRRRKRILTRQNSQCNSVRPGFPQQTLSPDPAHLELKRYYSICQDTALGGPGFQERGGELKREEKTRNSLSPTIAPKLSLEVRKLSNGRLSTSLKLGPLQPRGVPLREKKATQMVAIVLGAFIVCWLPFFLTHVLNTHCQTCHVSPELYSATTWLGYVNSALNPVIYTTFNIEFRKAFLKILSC

Row | Ki (human D3 receptor) [nM] | melting point [°C] | SMILES
1 | 8.5 | 82 | COCC(=O)NC1CCC(CCN2CCC(c3cccc(C(F)(F)F)c3)CC2)CC1 (mixture of isomers) [Example 61, 2-Methoxy-N-(4-{2-[4-(3-trifluoromethylphenyl)piperidin-1-yl]ethyl}cyclohexyl)acetamide trans/cis 95/5]
2 | 3.5 | 164 to 167 | N#CCNC(=O)CC1CCC(CCN2CCN(c3ccccc3F)CC2)CC1 (mixture of isomers) [Example 308, N-Cyanomethyl-2-(4-{2-[4-(2-fluorophenyl)piperazin-1-yl]ethyl}cyclohexyl)acetamide trans/cis 90/10]
3 | 6.6 |  | CC(=O)C(=O)N1CCC(CCN2CCN(c3cccc(C(F)(F)F)c3)CC2)CC1 [Example 2, 1-(4-{2-[4-(3-trifluoromethylphenyl)piperazin-1-yl]ethyl}-piperidin-1-yl)propane-1,2-dione, hydrochloride]
4 | 15.1 | 133 | CC(=O)NCC(=O)N1CCC(CCN2CCN(c3cccc(C(F)(F)F)c3)CC2)CC1 [Example 14, N-[2-Oxo-2-(4-{2-[4-(3-trifluoromethylphenyl)piperazin-1-yl]ethyl}piperidin-1-yl)ethyl]acetamide]
5 | 1.32 | 338 | CC(=O)CN1CCC(CCN2CCN(c3cccc4ccccc34)CC2)CC1.Cl.Cl [Example 36, 1-{4-[2-(4-Naphthalen-1-ylpiperazin-1-yl)ethyl]piperidin-1-yl}propan-2-one]
6 | 31.6 | 208 | O=C(N[C@H]1CC[C@H](CCN2CCN(c3ccccn3)CC2)CC1)C1CC=CC1 [Example 65, Cyclopent-3-enecarboxylic acid {4-[2-(4-pyridin-2-ylpiperazin-1-yl)ethyl]cyclohexyl}amide]
7 | 10.6 | 215 | N#Cc1ccc2c(c1)CCN(CC[C@H]1CC[C@H](NC(=O)CC(F)(F)F)CC1)C2 [Example 110, N-{4-[2-(6-Cyano-3,4-dihydro-1H-isoquinolin-2-yl)ethyl]cyclohexyl}-3,3,3-trifluoropropanamide]
8 | 3.9 | 252 | NC(=O)CCC(=O)N[C@H]1CC[C@H](CCN2CCN(c3ccccc3)CC2)CC1 [Example 187, N-{4-[2-(4-Phenylpiperazin-1-yl)ethyl]cyclohexyl}succinamide]
9 | 4.4 | 87 | O=C(C=C1CCC(CCN2CCN(c3cccc(C(F)(F)F)c3)CC2)CC1)N1CCCC1 (stereo not shown) [Example 291, 1-Pyrrolidin-1-yl-2-(4-{2-[4-(3-trifluoromethylphenyl)piperazin-1-yl]ethyl}cyclohexylidene) ethanone]
10 |  | 177 | COCCCC(=O)N[C@H]1CC[C@H](CCN2CCN(c3cc(F)cc(Cl)c3)CC2)CC1 [Example 740, N-(4-{2-[4-(3-Chloro-5-fluorophenyl)piperazin-1-yl]ethyl}cyclohexyl)-4-methoxybutanamide]
11 |  | 168 | COCCCC(=O)N[C@H]1CC[C@H](CCN2CCN(c3cc(C(F)(F)F)cc(C(F)(F)F)c3)CC2)CC1 [Example 741, N-(4-{2-[4-(3,5-Bistrifluoro-methylphenyl)piperazin-1-yl]ethyl}cyclohexyl)-4-methoxybutanamide]
12 |  | 132 | COCC(=O)N[C@H]1CC[C@H](CCN2CCN(c3cc(F)cc(Cl)c3)CC2)CC1 [Example 742, N-(4-{2-[4-(3-Chloro-5-fluorophenyl)piperazin-1-yl]ethyl}cyclohexyl)-2-methoxyacetamide]
13 |  | 148 | N#CCCC(=O)N[C@H]1CC[C@H](CCN2CCN(c3cc(F)cc(Cl)c3)CC2)CC1 [Example 743, N-(4-{2-[4-(3-Chloro-5-fluorophenyl)piperazin-1-yl]ethyl}cyclohexyl)-3-cyanopropanamide]
14 |  | 68 | CC(=O)CN1CCC(CCN2CCN(c3cc(F)c(F)cc3F)CC2)CC1 [Example 744, 1-(4-{2-[4-(2,4,5-Trifluoro-phenyl)-piperazin-1-yl]ethyl}piperidin-1-yl)propan-2-one]
15 |  | 90 | N#CCCCCC(=O)NC1CCC(CCN2CCN(c3cccc(C(F)(F)F)c3)CC2)CC1 (stereo not shown) [Example 745, 5-Cyano-pentanoic acid (4-{2-[4-(3-trifluoromethylphenyl)-piperazin-1-yl]ethyl}cyclohexyl) amide]
16 |  | 202 | N#CCC(=O)N[C@H]1CC[C@H](CCN2CCN(c3c(F)c(F)c(F)c(F)c3F)CC2)CC1 [Example 753, 2-Cyano-N-{4-[2-(4-pentafluorophenylpiperazin-1-yl)ethyl]cyclohexyl}acetamide]
17 |  | 177 | COCCCC(=O)N[C@H]1CC[C@H](CCN2CCN(c3ccc(F)c(C(F)(F)F)c3)CC2)CC1 [Example 754, N-(4-{2-[4-(4-Fluoro-3-trifluoromethylphenyl)piperazin-1-yl]ethyl}cyclohexyl)-4-methoxybutanamide]
18 |  | 171 | COCCCC(=O)N[C@H]1CC[C@H](CCN2CCN(c3ccc(Cl)c(C(F)(F)F)c3)CC2)CC1 [Example 755, N-(4-{2-[4-(4-Chloro-3-trifluoromethylphenyl)piperazin-1-yl]ethyl}cyclohexyl)-4-methoxybutanamide]
19 |  | 126 | N#CCCCC(=O)N[C@H]1CC[C@H](CCN2CCN(c3ccc(Cl)c(C(F)(F)F)c3)CC2)CC1 [Example 756, N-(4-{2-[4-(4-Chloro-3-trifluoromethylphenyl)piperazin-1-yl]ethyl}cyclohexyl)-4-cyanobutanamide]
20 |  | 177 | COCCCC(=O)N[C@H]1CC[C@H](CCN2CCN(c3cc(F)cc(C(F)(F)F)c3)CC2)CC1 [Example 757, N-(4-{2-[4-(3-Fluoro-5-trifluoromethylphenyl)piperazin-1-yl]ethyl}cyclohexyl)-4-methoxybutanamide]
21 |  | 146 | COCC(=O)N[C@H]1CC[C@H](CCN2CCN(c3ccc(F)c(C(F)(F)F)c3)CC2)CC1 [Example 760, N-(4-{2-[4-(4-Fluoro-3-trifluoromethylphenyl)piperazin-1-yl]ethyl}cyclohexyl)-2-methoxyacetamide]
22 |  | 171 | COCCCC(=O)N[C@H]1CC[C@H](CCN2CCN(c3ccc(Cl)cc3Cl)CC2)CC1 [Example 761, N-(4-{2-[4-(2,4-Dichlorophenyl)piperazin-1-yl]ethyl}cyclohexyl)-4-methoxybutanamide]
23 |  | 162 | N#CCCCC(=O)N[C@H]1CC[C@H](CCN2CCN(c3ccc(Cl)cc3Cl)CC2)CC1 [Example 762, 4-Cyano-N-(4-{2-[4-(2,4-dichlorophenyl)piperazin-1-yl]ethyl}cyclohexyl)butanamide]
24 |  | 196 | N#CC1CC1C(=O)N[C@H]1CC[C@H](CCN2CCN(c3cc(C(F)(F)F)ccc3F)CC2)CC1 (stereo partly shown) [Example 763, 2-Cyano-cyclopropanecarb-oxylic acid (4-{2-[4-(2-fluoro-5-trifluoromethylphenyl)piperazin-1-yl]ethyl}cyclohexyl) amide]
25 |  | 179 | N#CCCCC(=O)N[C@H]1CC[C@H](CCN2CCN(c3cc(Cl)c(Cl)cc3Cl)CC2)CC1 [Example 764, 4-Cyano-N-(4-{2-[4-(2,4,5-trichlorophenyl)piperazin-1-yl]ethyl}cyclohexyl)butanamide]
26 |  | 176 | N#CCCCC(=O)N[C@H]1CC[C@H](CCN2CCN(c3ccc(Cl)c(Cl)c3Cl)CC2)CC1 [Example 765, 4-Cyano-N-(4-{2-[4-(2,3,4-trichlorophenyl)piperazin-1-yl]ethyl}cyclohexyl)butanamide]
27 |  | 68 | CCC(=O)CN1CCC(CCN2CCN(c3cccc(Cl)c3Cl)CC2)CC1 [Example 771]
28 |  | 66 | CON(C)C(=O)CN1CCC(CCN2CCN(c3cccc(C)c3C)CC2)CC1 [Example 772, 2-(4-{2-[4-(2,3-dimethylphenyl)piperazin-1-yl]ethyl}piperidin-1-yl)-N-methoxy-N-methylacetamide]
29 |  | 118 | CCOC(=O)Nc1cccc(N2CCN(CCC3CCN(CC(C)=O)CC3)CC2)c1 [Example 777, [3-(4-{2-[1-(2-oxopropyl)piperidin-4-yl]ethyl}piperazin-1-yl)phenyl]carbamic acid ethyl ester]

Row | SMILES | Ki (human D3 receptor) [nM] | melting point [°C]
30 | CC(=O)CC1CCC(CCN2CCN(c3ccccc3F)CC2)CC1.Cl (mixture of isomers) [Example 288, 1-(4-{2-[4-(2-Fluorophenyl)-piperazin-1-yl]ethyl}cyclohexyl)-propan-2-one, hydrochloride trans/cis 80/20] | 2.1 | 233 to 236
31 | Cl.N#CCC(=O)N1CCC(CCN2CCN(c3cccc(C(F)(F)F)c3)CC2)CC1 [Example 15, 3-Oxo-3-(4-{2-[4-(3-trifluoromethylphenyl)piperazin-1-yl]ethyl}piperidin-1-yl)propanenitrile, hydrochloride] | 15.1 | 184
32 | COc1ccccc1N1CCN(CCC2CCN(CC(C)=O)CC2)CC1.Cl.Cl [Example 20, 1-(4-{2-[4-(2-Methoxy-phenyl)piperazin-1-yl]ethyl}piperidin-1-yl)propan-2-one, dihydrochloride] | 9.5 | 260
33 | O=C(CO)N[C@H]1CC[C@H](CCN2CCN(c3cccc(C(F)(F)F)c3)CC2)CC1 [Example 46, 2-Hydroxy-N-(4-{2-[4-(3-trifluoromethylphenyl)piperazin-1-yl]ethyl}cyclohexyl)acetamide, hydrochloride] | 12 | 
34 | COCC(=O)N[C@H]1CC[C@H](CCN2CC=C(c3cccc(C)c3C#N)CC2)CC1 [Example 54, N-(4-{2-[4-(2-Cyano-3-methylphenyl)-3,6-dihydro-2H-pyridin-1-yl]ethyl}cyclohexyl)-2-methoxyacetamide] | 18.3 | 158
